Assay results reported in PubChem BioAssay (NCI).
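48-hour exposure; five concentrations; linearly interpolated endpoints. At the TGI there is no net growth.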

How the values were obtained:
Test in all cases: NCI anticancer screen, dose series, 48 h
786-0 renal = tested on: 786-0 renal
A498 renal = tested on: A498 renal
A549 NSCLC = tested on: A549 NSCLC
ACHN renal = tested on: ACHN renal
BT-549 breast = tested on: BT-549 breast
CAKI-1 renal = tested on: CAKI-1 renal
CCRF-CEM leukemia = tested on: CCRF-CEM leukemia
COLO 205 colon = tested on: COLO 205 colon
DU-145 prostate = tested on: DU-145 prostate
EKVX NSCLC = tested on: EKVX NSCLC
HCT-116 colon = tested on: HCT-116 colon
HCT-15 colon = tested on: HCT-15 colon
HL-60(TB) leukemia = tested on: HL-60(TB) leukemia
HOP-62 NSCLC = tested on: HOP-62 NSCLC
HOP-92 NSCLC = tested on: HOP-92 NSCLC
HS 578T breast = tested on: HS 578T breast
HT29 colon = tested on: HT29 colon
IGROV1 ovarian = tested on: IGROV1 ovarian
K-562 leukemia = tested on: K-562 leukemia
LOX IMVI melanoma = tested on: LOX IMVI melanoma
M14 melanoma = tested on: M14 melanoma
MALME-3M melanoma = tested on: MALME-3M melanoma
MCF7 breast = tested on: MCF7 breast
MDA-MB-231 breast = tested on: MDA-MB-231 breast
MDA-MB-435 = tested on: MDA-MB-435
MDA-N = tested on: MDA-N
MOLT-4 leukemia = tested on: MOLT-4 leukemia
NCI-H226 lung = tested on: NCI-H226 lung
NCI-H23 lung = tested on: NCI-H23 lung
NCI-H460 lung = tested on: NCI-H460 lung
NCI-H522 lung = tested on: NCI-H522 lung
NCI/ADR-RES ovarian = tested on: NCI/ADR-RES ovarian
OVCAR-3 ovarian = tested on: OVCAR-3 ovarian
OVCAR-4 ovarian = tested on: OVCAR-4 ovarian
OVCAR-5 ovarian = tested on: OVCAR-5 ovarian
OVCAR-8 ovarian = tested on: OVCAR-8 ovarian
PC-3 prostate = tested on: PC-3 prostate
RPMI-8226 leukemia = tested on: RPMI-8226 leukemia
RXF 393 renal = tested on: RXF 393 renal
SF-268 CNS = tested on: SF-268 CNS
SF-295 CNS = tested on: SF-295 CNS
SF-539 CNS = tested on: SF-539 CNS
SK-MEL-2 melanoma = tested on: SK-MEL-2 melanoma
SK-MEL-28 melanoma = tested on: SK-MEL-28 melanoma
SK-MEL-5 melanoma = tested on: SK-MEL-5 melanoma
SK-OV-3 ovarian = tested on: SK-OV-3 ovarian
SN12C renal = tested on: SN12C renal
SNB-19 CNS = tested on: SNB-19 CNS
SNB-75 CNS = tested on: SNB-75 CNS
SR leukemia = tested on: SR leukemia
SW-620 colon = tested on: SW-620 colon
T-47D breast = tested on: T-47D breast
TK-10 renal = tested on: TK-10 renal
U251 CNS = tested on: U251 CNS
UACC-257 melanoma = tested on: UACC-257 melanoma
UACC-62 melanoma = tested on: UACC-62 melanoma
UO-31 renal = tested on: UO-31 renal
HCC-2998 colon = tested on: HCC-2998 colon
KM12 colon = tested on: KM12 colon
DMS 273 small cell lung = tested on: DMS 273 small cell lung
SNB-78 CNS = tested on: SNB-78 CNS

CCOc1cc(-c2nc3ccccn3c2/N=C/c2cc(Br)ccc2O)ccc1O
TGI (786-0 renal): 60.4 µM
TGI (A498 renal): 90.5 µM
TGI (A549 NSCLC): > 100 µM
TGI (ACHN renal): > 100 µM
TGI (BT-549 breast): > 100 µM
TGI (CAKI-1 renal): > 100 µM
TGI (CCRF-CEM leukemia): > 100 µM
TGI (COLO 205 colon): > 100 µM
TGI (DU-145 prostate): 70.3 µM
TGI (EKVX NSCLC): 76.6 µM
TGI (HCT-116 colon): > 100 µM
TGI (HCT-15 colon): > 100 µM
TGI (HL-60(TB) leukemia): > 100 µM
TGI (HOP-62 NSCLC): 44.8 µM
TGI (HOP-92 NSCLC): 64.5 µM
TGI (HS 578T breast): > 100 µM
TGI (HT29 colon): > 100 µM
TGI (IGROV1 ovarian): 49.1 µM
TGI (K-562 leukemia): > 100 µM
TGI (LOX IMVI melanoma): > 100 µM
TGI (M14 melanoma): > 100 µM
TGI (MALME-3M melanoma): > 100 µM
TGI (MCF7 breast): 43.6 µM
TGI (MDA-MB-231 breast): > 100 µM
TGI (MDA-MB-435): > 100 µM
TGI (MDA-N): > 100 µM
TGI (MOLT-4 leukemia): > 100 µM
TGI (NCI-H226 lung): > 100 µM
TGI (NCI-H23 lung): > 100 µM
TGI (NCI-H460 lung): > 100 µM
TGI (NCI-H522 lung): > 100 µM
TGI (NCI/ADR-RES ovarian): 93 µM
TGI (OVCAR-3 ovarian): 34 µM
TGI (OVCAR-4 ovarian): 38.7 µM
TGI (OVCAR-5 ovarian): > 100 µM
TGI (OVCAR-8 ovarian): 59.3 µM
TGI (PC-3 prostate): 73.3 µM
TGI (RPMI-8226 leukemia): > 100 µM
TGI (RXF 393 renal): 32 µM
TGI (SF-268 CNS): > 100 µM
TGI (SF-295 CNS): > 100 µM
TGI (SF-539 CNS): > 100 µM
TGI (SK-MEL-2 melanoma): > 100 µM
TGI (SK-MEL-28 melanoma): > 100 µM
TGI (SK-MEL-5 melanoma): > 100 µM
TGI (SK-OV-3 ovarian): 92.7 µM
TGI (SN12C renal): > 100 µM
TGI (SNB-19 CNS): 52.6 µM
TGI (SNB-75 CNS): 31.3 µM
TGI (SR leukemia): > 100 µM
TGI (SW-620 colon): > 100 µM
TGI (T-47D breast): 22.4 µM
TGI (TK-10 renal): 48.7 µM
TGI (U251 CNS): 40.2 µM
TGI (UACC-257 melanoma): 53.5 µM
TGI (UACC-62 melanoma): 57 µM
TGI (UO-31 renal): 84.6 µM

O=C(CSc1n[nH]c(=O)[nH]c1=O)NNC(=O)c1cccc2nc3ccccc3nc12
TGI (786-0 renal): > 100 µM
TGI (A498 renal): > 100 µM
TGI (A549 NSCLC): > 100 µM
TGI (ACHN renal): > 100 µM
TGI (BT-549 breast): 83.7 µM
TGI (CAKI-1 renal): > 100 µM
TGI (CCRF-CEM leukemia): > 100 µM
TGI (COLO 205 colon): > 100 µM
TGI (DU-145 prostate): > 100 µM
TGI (EKVX NSCLC): > 100 µM
TGI (HCC-2998 colon): > 100 µM
TGI (HCT-116 colon): > 100 µM
TGI (HCT-15 colon): > 100 µM
TGI (HL-60(TB) leukemia): > 100 µM
TGI (HOP-62 NSCLC): > 100 µM
TGI (HOP-92 NSCLC): > 100 µM
TGI (HS 578T breast): > 100 µM
TGI (HT29 colon): > 100 µM
TGI (IGROV1 ovarian): > 100 µM
TGI (K-562 leukemia): > 100 µM
TGI (KM12 colon): > 100 µM
TGI (LOX IMVI melanoma): > 100 µM
TGI (M14 melanoma): > 100 µM
TGI (MALME-3M melanoma): 87.8 µM
TGI (MCF7 breast): > 100 µM
TGI (MDA-MB-231 breast): > 100 µM
TGI (MDA-MB-435): > 100 µM
TGI (MDA-N): 97.5 µM
TGI (MOLT-4 leukemia): > 100 µM
TGI (NCI-H226 lung): > 100 µM
TGI (NCI-H23 lung): > 100 µM
TGI (NCI-H460 lung): > 100 µM
TGI (NCI/ADR-RES ovarian): > 100 µM
TGI (OVCAR-3 ovarian): > 100 µM
TGI (OVCAR-4 ovarian): > 100 µM
TGI (OVCAR-5 ovarian): > 100 µM
TGI (OVCAR-8 ovarian): > 100 µM
TGI (PC-3 prostate): > 100 µM
TGI (RPMI-8226 leukemia): > 100 µM
TGI (RXF 393 renal): > 100 µM
TGI (SF-268 CNS): > 100 µM
TGI (SF-295 CNS): > 100 µM
TGI (SF-539 CNS): > 100 µM
TGI (SK-MEL-2 melanoma): > 100 µM
TGI (SK-MEL-28 melanoma): > 100 µM
TGI (SK-MEL-5 melanoma): 45 µM
TGI (SK-OV-3 ovarian): > 100 µM
TGI (SN12C renal): > 100 µM
TGI (SNB-19 CNS): > 100 µM
TGI (SR leukemia): > 100 µM
TGI (SW-620 colon): > 100 µM
TGI (T-47D breast): > 100 µM
TGI (TK-10 renal): > 100 µM
TGI (U251 CNS): > 100 µM
TGI (UACC-257 melanoma): > 100 µM
TGI (UACC-62 melanoma): > 100 µM

CC[C@@H]1CN(C)[C@H]2Cc3c([nH]c4ccccc34)C(=O)C[C@H]1C2C(=O)OC (some centres not stated)
TGI (786-0 renal): > 100 µM
TGI (A498 renal): > 100 µM
TGI (A549 NSCLC): > 100 µM
TGI (ACHN renal): > 100 µM
TGI (BT-549 breast): > 100 µM
TGI (CAKI-1 renal): > 100 µM
TGI (CCRF-CEM leukemia): > 100 µM
TGI (COLO 205 colon): > 100 µM
TGI (DU-145 prostate): > 100 µM
TGI (EKVX NSCLC): > 100 µM
TGI (HCC-2998 colon): > 100 µM
TGI (HCT-116 colon): > 100 µM
TGI (HCT-15 colon): > 100 µM
TGI (HL-60(TB) leukemia): > 100 µM
TGI (HOP-62 NSCLC): > 100 µM
TGI (HOP-92 NSCLC): > 100 µM
TGI (HS 578T breast): > 100 µM
TGI (HT29 colon): > 100 µM
TGI (IGROV1 ovarian): > 100 µM
TGI (K-562 leukemia): > 100 µM
TGI (KM12 colon): > 100 µM
TGI (LOX IMVI melanoma): > 100 µM
TGI (M14 melanoma): > 100 µM
TGI (MALME-3M melanoma): > 100 µM
TGI (MCF7 breast): > 100 µM
TGI (MDA-MB-231 breast): > 100 µM
TGI (MDA-MB-435): > 100 µM
TGI (MDA-N): > 100 µM
TGI (MOLT-4 leukemia): > 100 µM
TGI (NCI-H226 lung): > 100 µM
TGI (NCI-H23 lung): > 100 µM
TGI (NCI-H460 lung): > 100 µM
TGI (NCI-H522 lung): > 100 µM
TGI (NCI/ADR-RES ovarian): > 100 µM
TGI (OVCAR-3 ovarian): > 100 µM
TGI (OVCAR-4 ovarian): > 31.6 µM
TGI (OVCAR-5 ovarian): > 100 µM
TGI (OVCAR-8 ovarian): > 100 µM
TGI (PC-3 prostate): > 100 µM
TGI (RPMI-8226 leukemia): > 100 µM
TGI (RXF 393 renal): > 100 µM
TGI (SF-268 CNS): > 100 µM
TGI (SF-295 CNS): > 100 µM
TGI (SF-539 CNS): > 100 µM
TGI (SK-MEL-2 melanoma): > 100 µM
TGI (SK-MEL-28 melanoma): > 100 µM
TGI (SK-MEL-5 melanoma): > 100 µM
TGI (SK-OV-3 ovarian): > 100 µM
TGI (SN12C renal): > 100 µM
TGI (SNB-19 CNS): > 100 µM
TGI (SNB-75 CNS): > 100 µM
TGI (SR leukemia): > 100 µM
TGI (SW-620 colon): > 100 µM
TGI (T-47D breast): > 100 µM
TGI (TK-10 renal): > 100 µM
TGI (U251 CNS): > 100 µM
TGI (UACC-257 melanoma): > 100 µM
TGI (UACC-62 melanoma): > 100 µM
TGI (UO-31 renal): > 100 µM

COC(=O)CN1CCSC1=NC#N
TGI (A498 renal): > 100 µM
TGI (A549 NSCLC): > 100 µM
TGI (CCRF-CEM leukemia): > 100 µM
TGI (DMS 273 small cell lung): > 100 µM
TGI (EKVX NSCLC): > 100 µM
TGI (HL-60(TB) leukemia): > 100 µM
TGI (HOP-62 NSCLC): > 100 µM
TGI (HOP-92 NSCLC): > 100 µM
TGI (HT29 colon): > 100 µM
TGI (IGROV1 ovarian): > 100 µM
TGI (K-562 leukemia): > 100 µM
TGI (KM12 colon): > 100 µM
TGI (M14 melanoma): > 100 µM
TGI (MOLT-4 leukemia): > 100 µM
TGI (NCI-H226 lung): > 100 µM
TGI (NCI-H23 lung): > 100 µM
TGI (NCI-H460 lung): > 100 µM
TGI (NCI-H522 lung): > 100 µM
TGI (OVCAR-5 ovarian): > 100 µM
TGI (RXF 393 renal): > 100 µM
TGI (SF-268 CNS): > 100 µM
TGI (SK-MEL-28 melanoma): > 100 µM
TGI (SK-OV-3 ovarian): > 100 µM
TGI (SNB-19 CNS): > 100 µM
TGI (SNB-78 CNS): > 100 µM
TGI (SR leukemia): > 100 µM
TGI (TK-10 renal): > 100 µM
TGI (U251 CNS): > 100 µM
TGI (UACC-62 melanoma): > 100 µM
TGI (UO-31 renal): > 100 µM
